Values after ≈ are worked out from the molar mass of the structure shown. Active and inactive are the calls of the source. No cut-off for these calls is given here.
Experiments:
Aurora kinase B [1] = target: T1, Aurora kinase B (Homo sapiens, UniProt Q96GD4); test: Inhibition of Aurora-B
COLO 205 [2] = test: Antiproliferative activity against human COLO205 cells by [3H]thymidine uptake assay; assay type: functional, cell-based; conditions: for Activity: TDE = time-dependent effect
Aurora kinase A = target: T2, Aurora kinase A (Homo sapiens, UniProt O14965)
T2 sequence (O14965 whole entry): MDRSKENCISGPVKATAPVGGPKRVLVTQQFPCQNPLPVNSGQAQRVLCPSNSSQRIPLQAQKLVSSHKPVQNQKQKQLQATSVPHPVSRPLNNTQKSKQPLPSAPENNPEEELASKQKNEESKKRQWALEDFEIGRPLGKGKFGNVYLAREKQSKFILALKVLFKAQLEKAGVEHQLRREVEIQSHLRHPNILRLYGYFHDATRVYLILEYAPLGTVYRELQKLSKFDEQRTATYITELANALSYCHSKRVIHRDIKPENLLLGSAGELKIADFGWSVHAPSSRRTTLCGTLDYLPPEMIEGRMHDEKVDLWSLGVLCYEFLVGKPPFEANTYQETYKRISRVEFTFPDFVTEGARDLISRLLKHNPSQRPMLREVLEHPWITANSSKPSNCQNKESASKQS
Description: Inhibition of Aurora-A by coupled assay

[3] = Aqueous solubility at pH 7.4; assay type: physicochemical; conditions: buffer
[4] = target: Proto-oncogene tyrosine-protein kinase Src (Homo sapiens, UniProt P12931); test: Inhibition of Src
Sequence of Proto-oncogene tyrosine-protein kinase Src (P12931 2-536 limits assumed): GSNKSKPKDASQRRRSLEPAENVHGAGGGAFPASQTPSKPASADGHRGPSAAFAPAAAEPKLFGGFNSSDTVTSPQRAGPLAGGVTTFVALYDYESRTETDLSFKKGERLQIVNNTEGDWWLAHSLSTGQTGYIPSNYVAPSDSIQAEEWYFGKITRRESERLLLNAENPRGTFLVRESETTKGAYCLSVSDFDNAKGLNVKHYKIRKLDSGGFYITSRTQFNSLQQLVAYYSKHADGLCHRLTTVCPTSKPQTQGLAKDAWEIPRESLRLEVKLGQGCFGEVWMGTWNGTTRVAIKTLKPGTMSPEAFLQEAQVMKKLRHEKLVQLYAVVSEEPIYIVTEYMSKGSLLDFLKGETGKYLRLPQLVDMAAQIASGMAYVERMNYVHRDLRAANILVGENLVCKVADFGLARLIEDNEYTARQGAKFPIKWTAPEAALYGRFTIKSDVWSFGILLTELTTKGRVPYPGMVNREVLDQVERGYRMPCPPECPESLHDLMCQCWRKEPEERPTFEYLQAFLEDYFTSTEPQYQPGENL

[5] = target: Glycogen synthase kinase-3 beta (Homo sapiens, UniProt P49841)
Sequence of Glycogen synthase kinase-3 beta (P49841 whole entry): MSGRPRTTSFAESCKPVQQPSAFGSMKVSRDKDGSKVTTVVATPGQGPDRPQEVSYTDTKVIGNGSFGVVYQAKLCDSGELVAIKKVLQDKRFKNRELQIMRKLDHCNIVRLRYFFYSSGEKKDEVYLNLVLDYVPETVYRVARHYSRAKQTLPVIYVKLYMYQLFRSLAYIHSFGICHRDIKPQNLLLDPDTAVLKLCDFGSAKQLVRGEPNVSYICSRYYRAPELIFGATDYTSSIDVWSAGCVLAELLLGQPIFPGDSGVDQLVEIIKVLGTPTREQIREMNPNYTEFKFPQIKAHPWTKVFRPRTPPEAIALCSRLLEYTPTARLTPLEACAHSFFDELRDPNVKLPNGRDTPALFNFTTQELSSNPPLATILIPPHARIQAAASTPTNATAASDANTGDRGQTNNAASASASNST

Aurora kinase B [6] = target: T1, Aurora kinase B; test: Inhibition of Aurora-B by time dependent kinetic study
[7] = Half life in rat; assay type: ADME, organism-based; conditions: in vivo
MCF7 = test: Antitumor activity against human MCF7 cells xenograft model assessed as tumor growth inhibition at 300 mg/kg, po bid; assay type: functional; conditions: read-out: GI
COLO 205 [8] = test: Induction of apoptosis in human COLO205 cells by TUNEL staining; assay type: functional, cell-based
COLO 205 [9] = test: Cytotoxicity against human COLO205 cells after 48 hrs by MTS assay; assay type: functional, cell-based; conditions: COLO 205, 48 h
COLO 205 [10] = test: Induction of apoptosis in human COLO205 cells by annexin V binding; assay type: functional, cell-based
COLO 205 [11] = test: Induction of apoptosis in human COLO205 cells assessed as DNA fragmentation by ELISA; assay type: functional, cell-based
[12] = Bioavailability in rat; assay type: ADME, organism-based; conditions: in vivo
Aurora kinase C = target: T3, Aurora kinase C (Homo sapiens, UniProt Q9UQB9); test: Inhibition of Aurora-C
T3 sequence (Q9UQB9 whole entry): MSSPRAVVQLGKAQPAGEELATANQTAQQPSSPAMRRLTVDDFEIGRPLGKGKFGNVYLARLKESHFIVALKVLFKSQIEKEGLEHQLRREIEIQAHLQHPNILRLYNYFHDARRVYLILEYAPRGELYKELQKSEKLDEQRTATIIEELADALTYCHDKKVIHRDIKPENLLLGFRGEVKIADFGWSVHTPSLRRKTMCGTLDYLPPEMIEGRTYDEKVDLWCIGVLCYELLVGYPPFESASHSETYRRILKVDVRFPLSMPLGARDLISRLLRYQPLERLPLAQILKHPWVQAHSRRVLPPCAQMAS

T1 sequence (Q96GD4 whole entry): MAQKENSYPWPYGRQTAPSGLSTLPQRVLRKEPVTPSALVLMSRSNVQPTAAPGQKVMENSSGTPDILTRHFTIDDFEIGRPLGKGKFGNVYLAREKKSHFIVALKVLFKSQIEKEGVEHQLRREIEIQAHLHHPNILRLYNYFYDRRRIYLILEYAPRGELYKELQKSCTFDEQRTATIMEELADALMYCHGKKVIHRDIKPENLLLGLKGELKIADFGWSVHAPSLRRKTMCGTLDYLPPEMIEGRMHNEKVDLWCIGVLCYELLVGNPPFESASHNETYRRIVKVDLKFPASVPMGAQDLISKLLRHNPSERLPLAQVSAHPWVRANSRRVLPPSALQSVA

SMILES | Ki (Aurora kinase B [1]) [nM] | IC50 (COLO 205 [2]) [nM] | Ki (Aurora kinase A) [nM] | other results
Cc1cc(Nc2nc(Sc3ccc(Cl)cc3)nc3ccccc23)n[nH]1 | > 1100 |  |  | 
CC(=O)Nc1ccc(Sc2nc(Nc3cc(C4CC4)[nH]n3)c3ccccc3n2)cc1 | 15 | 210 |  | 
CCC(=O)Nc1ccc(Sc2nc(Nc3cc(C)[nH]n3)cc(N3CCN(C(C)(C)C)CC3)n2)cc1 |  |  |  | Activity (COLO 205 [2]): tde
CCC(=O)Nc1ccc(Sc2nc(C)cc(Nc3cc(C)n[nH]3)n2)cc1 | 153 | 720 | 5.1 | solubility [3]: 4.2 µg/mL (≈ 11.4 µM)
CCC(=O)Nc1ccc(Sc2nc(Nc3cc(C)[nH]n3)cc(-c3ccncc3)n2)cc1 | 49 | 1000 | < 3 | 
CC(=O)N(C)c1ccc(Sc2nc(Nc3cc(C)[nH]n3)c3ccccc3n2)cc1 | 105 | 5770 | < 1 | Ki [4]: 796 nM
CCC(=O)Nc1ccc(Sc2nc(Nc3cc(C)n[nH]3)cc(N3CCNCC3)n2)cc1 | 18 |  | 3.7 | solubility [3]: 296 µg/mL (≈ 675 µM)
Cc1cc(Nc2cc(N3CCN(C)CC3)nc(Sc3ccc(NC(=O)C4CC4)cc3)n2)n[nH]1 [TOZASERTIB] |  | 19 |  | Activity (COLO 205 [2]): tde
CCC(=O)Nc1ccc(Sc2nc(Nc3cc(C)n[nH]3)cc(N3CCN(CC)CC3)n2)cc1 | 25 |  | < 1 | solubility [3]: 114 µg/mL (≈ 245 µM)
Cc1cc(Nc2nc(Sc3ccc4ccccc4c3)nc3ccccc23)n[nH]1 | > 40 | > 12000 |  | Ki [5]: > 150 nM; Ki [4]: > 500 nM
CCC(=O)Nc1ccc(Sc2nc(Nc3cc(C)n[nH]3)cc(C3CC3)n2)cc1 | 59 | 1420 | 3.9 | 
CCC(=O)Nc1ccc(Sc2nc(Nc3cc(C)[nH]n3)cc(N3CCNCC3)n2)cc1 |  |  |  | Activity (COLO 205 [2]): tde
CCC(=O)Nc1ccc(Sc2nc(Nc3cc(C)n[nH]3)cc(N3CCOCC3)n2)cc1 | 14 |  | 1.7 | solubility [3]: 5.4 µg/mL (≈ 12.3 µM)
Cc1cc(Nc2nc(-c3ccncc3)nc3ccccc23)n[nH]1 |  |  | 81 | Ki [5]: 73 nM; Ki [4]: 181 nM
CCC(=O)Nc1ccc(Sc2nc(Nc3cc(C)[nH]n3)cc(-c3ccccc3)n2)cc1 | 145 | 870 | < 1 | 
CCC(=O)Nc1ccc(Sc2nc(Nc3cc(C)[nH]n3)cc(N3CCN(CC)CC3)n2)cc1 |  |  |  | Activity (COLO 205 [2]): tde
CCC(=O)Nc1ccc(Sc2nc(Nc3cc(C)n[nH]3)cc(N3CCN(C(C)(C)C)CC3)n2)cc1 | 11 |  | 1.3 | Ki (Aurora kinase B [6]): 0.8 nM; half-life [7]: 8 h; solubility [3]: 221 µg/mL (≈ 446 µM)
CCC(=O)Nc1ccc(Sc2nc(Nc3cc(C)[nH]n3)cc(-c3cccnc3)n2)cc1 | 52 | 470 | 3.9 | solubility [3]: < 1 µg/mL
CC(=O)Nc1ccc(Sc2nc(Nc3cc(C)n[nH]3)c3ccccc3n2)cc1 |  |  |  | inhibition in vivo at 300 mg/kg (MCF7): 50%; Activity (COLO 205 [8]): Active; IC50 (COLO 205 [9]): 8500 nM; Activity (COLO 205 [10]): Active; Activity (COLO 205 [11]): Active
Cc1cc(Nc2nc(Sc3ccc(NC(=O)OC(C)(C)C)cc3)nc3ccccc23)n[nH]1 | 250 | 2870 |  | Ki [5]: > 4000 nM; Ki [4]: > 3000 nM
Cc1cc(Nc2nc(Sc3ccc(Cl)cc3Cl)nc3ccccc23)n[nH]1 | > 1100 |  |  | 
Cc1cc(Nc2nc(Sc3ccc(NS(C)(=O)=O)cc3)nc3ccccc23)n[nH]1 | 230 | 780 |  | 
CCC(=O)Nc1ccc(Sc2nc(Nc3cc(C)[nH]n3)c3ccccc3n2)cc1 | 57 | 830 |  | 

SMILES | Ki (Aurora kinase B [1]) [nM] | IC50 (COLO 205 [2]) [nM] | Ki (Aurora kinase A) [nM] | other results
CC(=O)Nc1ccc(Sc2nc(Nc3cc(C)[nH]n3)c3ccccc3n2)cc1 |  |  |  | bioavailability [12]: 40%; Ki (Aurora kinase C): 11 nM; half-life [7]: 1.5 h
COc1ccc(Sc2nc(Nc3cc(C)[nH]n3)c3ccccc3n2)cc1 | 575 |  |  | 
COc1ccc(Sc2nc(Nc3cc(C)[nH]n3)c3ccccc3n2)cc1OC | 120 |  |  | 
Cc1cc(Nc2nc(Sc3c(Cl)cccc3Cl)nc3ccccc23)n[nH]1 | > 1100 |  |  | 
CCC(=O)Nc1ccc(Sc2nc(Nc3cc(C)[nH]n3)cc(N3CCC3)n2)cc1 | 23 | 730 | 2.4 | 
Cc1cc(Nc2nc(Sc3ccccc3)nc3ccccc23)n[nH]1 | 590 |  |  | 
COc1ccccc1Sc1nc(Nc2cc(C)[nH]n2)c2ccccc2n1 | 995 |  |  | Ki [4]: > 1000 nM
CCC(=O)Nc1ccc(Sc2nc(Nc3cc(C)[nH]n3)cc(N3CCN(C)CC3)n2)cc1 | 20 |  | 1.6 | Activity (COLO 205 [2]): tde; solubility [3]: 63.4 µg/mL (≈ 140 µM)
Cc1cc(Nc2cc(N3CCN(C)CC3)nc(Sc3ccc(NC(=O)C4CC4)cc3)n2)[nH]n1 [TOZASERTIB] |  |  |  | solubility [3]: 6.8 µg/mL (≈ 14.6 µM)
CCC(=O)Nc1ccc(Sc2nc(Nc3cc(C)[nH]n3)cc(C(C)(C)C)n2)cc1 | 115 | 2000 | 10 | solubility [3]: 11.2 µg/mL (≈ 27.3 µM)
CC(=O)Nc1ccc(Sc2nc(Nc3cc[nH]n3)c3ccccc3n2)cc1 | > 1100 | 2200 |  | 
Cc1cc(Nc2nc(Sc3ccc(Cl)c(Cl)c3)nc3ccccc23)n[nH]1 | > 40 |  |  | Ki [4]: > 38 nM
CC(=O)Nc1ccc(Sc2nc(Nc3cc(C)[nH]n3)cc(-c3ccccc3)n2)cc1 | 83 |  | 2.4 | 
CC(=O)Nc1ccc(Sc2nc(C)cc(Nc3cc(C)n[nH]3)n2)cc1 | 220 | 2000 | 18 | solubility [3]: < 1 µg/mL
CCC(=O)Nc1ccc(Sc2nc(Nc3cc(C)n[nH]3)cc(N3CCCCC3)n2)cc1 | 8 |  | 1.6 | 
Cc1cc(Nc2nc(Sc3ccccc3Cl)nc3ccccc23)n[nH]1 | 445 |  |  | 
Cc1cc(Nc2nc(Sc3ccc(NC(=O)C4CC4)cc3)nc3ccccc23)n[nH]1 | 51 | 910 |  | 
Cc1cc(Nc2nc(Sc3cccc(Cl)c3)nc3ccccc23)n[nH]1 | 185 |  |  | 
CC(=O)Nc1ccc(Sc2nccc(Nc3cc(C)[nH]n3)n2)cc1 | 207 | 4050 | 86 | solubility [3]: 13.8 µg/mL (≈ 40.5 µM)
Cc1cc(Nc2nc(Sc3cccc(Cl)c3Cl)nc3ccccc23)n[nH]1 | 675 |  |  | 
CCC(=O)Nc1ccc(Sc2nc(Nc3cc(C)[nH]n3)cc(N3CCN(C4CC4)CC3)n2)cc1 |  |  |  | Activity (COLO 205 [2]): tde
CCC(=O)Nc1ccc(Sc2nc(Nc3cc(C)n[nH]3)cc(N3CCN(C4CC4)CC3)n2)cc1 | 9.5 |  | < 1 | solubility [3]: 12.8 µg/mL (≈ 26.7 µM)

— ChEMBL document CHEMBL1158437, “The discovery of the potent aurora inhibitor MK-0457 (VX-680)” (Bioorg Med Chem Lett, 2009)
